Assay results taken from patent US10040838B2, “CRHR2 peptide agonists and uses thereof” (JANSSEN PHARMACEUTICA NV, priority 2008, dated 2018).
Several values for one entry are separate records, joined by “and”; a condition that tells them apart may be missing. Identical values can stand only once. Like-named read-outs stand apart in the source and are kept apart here. No end group written: not given here.

Assays:
[1] = molecular target: T1, CRHR1 (Homo sapiens, UniProt P34998); test: Radioligand binding CRHR1 assay, [125I]-(Tyr0)-sauvagine; set-up: expressed in transfected cells; host or cells: cell membranes; conditions: Table 15; slope of competition curve
T1 sequence (P34998 24-415): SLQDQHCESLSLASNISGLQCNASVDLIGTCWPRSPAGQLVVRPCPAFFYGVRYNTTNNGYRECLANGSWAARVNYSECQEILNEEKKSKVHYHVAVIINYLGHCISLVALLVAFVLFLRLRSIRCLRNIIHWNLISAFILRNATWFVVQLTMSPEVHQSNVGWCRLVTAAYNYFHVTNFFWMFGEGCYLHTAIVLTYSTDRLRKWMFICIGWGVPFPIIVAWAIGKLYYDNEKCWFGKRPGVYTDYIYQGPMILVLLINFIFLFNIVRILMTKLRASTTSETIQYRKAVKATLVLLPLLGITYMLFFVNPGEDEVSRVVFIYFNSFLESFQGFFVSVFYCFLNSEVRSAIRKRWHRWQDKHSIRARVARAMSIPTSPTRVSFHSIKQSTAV
Experimental: The solution was then homogenized with a Polytron tissue grinder at a setting of 10 and 7×3 s (Brinkmann Instruments, Westbury, N.Y.). The homogenate was centrifuged at 4° Celsius at 800×g for 5 min with the pellet being discarded. […] All binding assays were conducted in 96-well Multiscreen GF/B filter plates (Millipore, Billericay, Mass., U.S.A.) that were pre-soaked in assay buffer with 0.3% PEI for 1 hour. […] The bound radioactivity was separated by filtration using a Multiscreen Resist manifold (Millipore Corp., Billerica, Mass., U.S.A). The filters were washed three times with ice-cold PBS at pH 7.5 and radioactivity retained on the filters was quantified by its liquid scintillation measured by a TopCount counter (Packard BioScience, Boston, Mass., U.S.A). All experiments were performed in triplicate.

[2] = molecular target: T1, CRHR1; test: cAMP assay in h-CRHR1 transfected SK-N-MC cells; format: cell-based; set-up: expressed in transfected cells; conditions: for Experimental nH: Table 11, Hill slope
Experimental: Human CRHR1 (accession number X72304) or CRHR2 (accession number U34587) were cloned into pcDNA3.1/Zeo expression vector and stably transfected into SK-N-MC cells by electroporation. Cells were maintained in MEM w/Earl's Salt with 10% FBS, 50 I.U. penicillin, 50 μg/ml streptomycin, 2 mM L-glutamine, 1 mM sodium pyruvate and 0.1 mM nonessential amino acids, 600 μg/ml G418. Cells were grown at 37° C. in 5% CO2.
Cells were plated in 96-well tissue culture dishes (Biocoat from BD Biosciences) overnight at 50,000 cell/well. Cells were washed with PBS then resuspended in DMEM F-12 without phenol red, containing 10 μM isobutylmethylxanthine (IBMX). Cells were incubated with the peptides at concentrations ranging from 1 pM to 10 μM for 60 min at 37° Celsius. […] Forskolin (10 μM), a direct stimulant of adenylate cyclase, was used as positive control. The assays were stopped by the addition of 0.5 M HCl and mixing by orbital rotation for 2 h at 4° Celsius.
Transfected SK-N-MC cells were plated in 96-well Biocoat tissue culture dishes (BD Biosciences, San Jose, Calif., U.S.A) overnight at 50,000 cell/well. […]
Individual agonist concentration-response curve data were fitted to the Hill equation, see formula below, using GraphPad Prism (Graphpad Software, La Jolla, Calif., U.S.A.), to provide estimates of agonist concentration needed to generate one-half maximal response (A50), and the maximal asymptote (α) and Hill slope (nH) parameters. In this equation, [A] is the agonist concentration and E is the measured effect:
For display purposes the mean fitted parameter estimates were used to generate a single E/[A] curve shown superimposed on the mean experimental data. Potency estimates for agonists, pA50, are expressed as the negative logarithm of the midpoint of each curve and listed with their standard error of measurement (SEM).
Human and rat peptides (see Table 10) were used on the stimulation of h-CRHR1 or h-CRHR2 transfected SK-N-MC cells in the cAMP flash plate assay. […] Curves were calculated using non-linear regression sigmoidal concentration-response analysis calculation in GraphPad Prism.

[3] = molecular target: T2, h-CRHR1 (Homo sapiens, UniProt P34998); conditions: h-CRHR1 transfected HEK-293 cells, approximated from concentration response curves, Hsu et al. 2001; cited from earlier work
T2 sequence (P34998 24-415): T1 sequence (P34998 24-415)

[4] = molecular target: T3, h-CRHR2b (Homo sapiens, UniProt Q13324); conditions: h-CRHR2b transfected HEK-293 cells, approximated from concentration response curves, Hsu et al. 2001; cited from earlier work
T3 sequence (Q13324 1-438 isoform Q13324-2): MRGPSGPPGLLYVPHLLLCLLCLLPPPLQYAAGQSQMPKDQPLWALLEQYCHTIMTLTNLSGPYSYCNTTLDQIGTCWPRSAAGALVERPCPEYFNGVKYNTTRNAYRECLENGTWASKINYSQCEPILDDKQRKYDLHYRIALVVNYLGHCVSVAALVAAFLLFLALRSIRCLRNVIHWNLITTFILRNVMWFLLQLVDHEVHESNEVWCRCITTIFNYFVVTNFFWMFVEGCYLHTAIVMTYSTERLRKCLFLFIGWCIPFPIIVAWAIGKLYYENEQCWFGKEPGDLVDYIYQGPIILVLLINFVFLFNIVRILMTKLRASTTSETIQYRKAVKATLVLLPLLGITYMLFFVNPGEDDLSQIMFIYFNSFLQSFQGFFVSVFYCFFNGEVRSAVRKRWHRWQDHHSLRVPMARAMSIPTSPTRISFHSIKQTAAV

[5] = tested on: Langendorff perfused rabbit heart; test: Retrograde-perfused Langendorff rabbit heart assay; conditions: bolus into the perfusion block
Experimental: The effect of h-SCP (SEQ ID NO:1) on heart rate (HR), left ventricular (LV) contraction, and vascular tone was assessed in a retrograde-perfused Langendorff rabbit heart assay.

Row | Compound | CRHR1 nH [1] | Experimental nH [2] | Experimental αmax ([2]; Table 11, maximal asymptote) | Experimental nH ([2]; listed as h-SRP) | Published pA50 [3] | Published pA50 [4] | EC50 ([5]; read-out: concentration for 50% response, decrease in coronary perfusion pressure (CPP)) | EC50 ([5]; read-out: concentration for 50% response, increase in heart rate) | EC50 ([5]; read-out: concentration for 50% response, increase in left ventricular developed pressure (dP/dtmax))
1 | CC[C@H](C)[C@H](NC(=O)[C@H](CO)NC(=O)[C@H](CC(C)C)NC(=O)[C@@H]1CCCN1C(=O)[C@@H]1CCCN1C(=O)[C@H](CC(=O)O)NC(=O)[C@@H](N)CC(=O)O)C(=O)N[C@@H](CC(=O)O)C(=O)N[C@@H](CC(C)C)C(=O)N[C@H](C(=O)N[C@@H](Cc1ccccc1)C(=O)N[C@@H](Cc1c[nH]cn1)C(=O)N[C@@H](CC(C)C)C(=O)N[C@@H](CC(C)C)C(=O)N[C@@H](CCCNC(=N)N)C(=O)N[C@H](C(=O)N[C@@H](CC(C)C)C(=O)N[C@@H](CC(C)C)C(=O)N[C@@H](CCC(=O)O)C(=O)N[C@@H](CC(C)C)C(=O)N[C@@H](C)C(=O)N[C@@H](CCCNC(=N)N)C(=O)N[C@H](C(=O)N[C@@H](CCC(N)=O)C(=O)N[C@@H](CO)C(=O)N[C@@H](CCC(N)=O)C(=O)N[C@@H](CCCNC(=N)N)C(=O)N[C@@H](CCC(=O)O)C(=O)N[C@@H](CCCNC(=N)N)C(=O)N[C@@H](C)C(=O)N[C@@H](CCC(=O)O)C(=O)N[C@@H](CCC(N)=O)C(=O)N[C@@H](CC(N)=O)C(=O)N[C@@H](CCCNC(=N)N)C(=O)N[C@H](C(=O)N[C@H](C(=O)N[C@@H](Cc1ccccc1)C(=O)N[C@@H](CC(=O)O)C(=O)N[C@@H](CO)C(=O)N[C@H](C(N)=O)C(C)C)[C@@H](C)CC)[C@@H](C)CC)[C@@H](C)O)[C@@H](C)O)[C@@H](C)O [SEQ ID NO: 114, DDPPLSIDLTFHLLRTLLELARTQSQRERAEQNRIIFDSV-NH2] | 0.91 ± 0.27 | 1.15 | 99.61 |  |  |  |  |  | 
2 | HPGSRIVLSLDVPIGLLQILLEQARARAAREQATTNARILARV-NH2 [SEQ ID NO: 117, HPGSRIVLSLDVPIGLLQILLEQARAPAAREQATTNARILARV-NH2, reference compound] |  |  |  | 1.61 and 1.33 and 1.26 | >7^3 | ~9^4 |  |  | 
3 | TKFTLSLDVPTNIMNLLFNIAKAKNLRAQAAANAHLMAQI-NH2 [SEQ ID NO: 1, TKFTLSLDVPTNIMNLLFNIAKAKNLRAQAAANAHLMAQI-NH2, reference compound] | 1.16 ± 0.65 |  |  |  |  | ~9^4 | 46 nM | 52 nM | 9.9 nM
